{"source": "paper PMC7734590", "about": "“Identification of a Selective RelA Inhibitor Based on DSE-FRET Screening Methods” (International Journal of Molecular Sciences, 2020)", "key": {"p52": {"target": "T1, p52 (Homo sapiens, UniProt Q00653)", "T1 sequence (Q00653 1-454 limits assumed)": "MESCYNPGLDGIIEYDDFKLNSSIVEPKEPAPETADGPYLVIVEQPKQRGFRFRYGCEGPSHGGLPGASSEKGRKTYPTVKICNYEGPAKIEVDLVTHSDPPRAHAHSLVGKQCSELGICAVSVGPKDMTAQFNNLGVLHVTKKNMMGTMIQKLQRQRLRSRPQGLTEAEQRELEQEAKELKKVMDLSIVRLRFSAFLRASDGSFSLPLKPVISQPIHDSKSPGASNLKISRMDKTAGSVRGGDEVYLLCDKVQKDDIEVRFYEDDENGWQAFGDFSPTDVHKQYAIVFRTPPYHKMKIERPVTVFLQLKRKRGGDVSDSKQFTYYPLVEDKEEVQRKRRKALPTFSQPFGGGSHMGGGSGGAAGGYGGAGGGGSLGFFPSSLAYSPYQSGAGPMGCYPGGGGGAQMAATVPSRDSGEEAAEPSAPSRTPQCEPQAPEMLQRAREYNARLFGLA", "assay": "DSE-FRET p52–DNA binding inhibition", "type": "biochemical", "set-up": "p52 Retest % Inhibition Run2 / p52 Retest % Inhibition Avg. / Kinetic assay p52 Inhibition % ΔRFU(60 min-0 min) / p52 HTS % Inhibition / p52 Retest % Inhibition Run1: dose or concentration left out as unconfirmed", "conditions": "for p52 Retest % Inhibition Avg.: Retest average of Run1 and Run2", "description": "(§1) Plate-based (384 scale) DNA-binding experiments were carried out with 0.1 µL of 2 mM or 1 mg/mL compound, 2 µL of 80 nM NF-D1 (consisting of NF-01F and NF-14D), 1 µL of 20 ng/µL poly dI-dC, and 6.9 µL of 3.2 pmol protein in binding buffer (10 mM 4-(2-hydroxyethyl)-1-piperazineethanesulfonic acid (HEPES)–NaOH pH 7.9, 50 mM KCl, 0.1 mM ethylenediaminetetraacetic acid (EDTA), 2.5 mM dithiothreitol (DTT), 10% glycerol, and 0.05% Nonidet P40). The plates were incubated for 30 min at room temperature, after which 10 µL of NF-D2 (consisting of NF-02 and NF-13) was added. The plates were centrifuged at 1000 rpm for 30 s, followed by shaking for 30 s using a plate shaker (Biotec). Fluorescence was measured at 528 nm, after excitation at 485 nm, using a multiplate reader (Biotec) over a period of 60 min."}, "RelA": {"target": "RelA (Homo sapiens, UniProt Q04206)", "sequence (Q04206 19-306 limits assumed)": "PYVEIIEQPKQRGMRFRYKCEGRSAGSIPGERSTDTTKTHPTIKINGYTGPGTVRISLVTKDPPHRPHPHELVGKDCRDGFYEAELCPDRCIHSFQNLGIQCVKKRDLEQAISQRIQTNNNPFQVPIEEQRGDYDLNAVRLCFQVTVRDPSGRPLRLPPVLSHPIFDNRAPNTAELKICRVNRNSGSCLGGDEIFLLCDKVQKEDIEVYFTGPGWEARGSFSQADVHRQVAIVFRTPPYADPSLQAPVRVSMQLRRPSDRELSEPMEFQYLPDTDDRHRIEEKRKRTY", "assay": "DSE-FRET RelA–DNA binding inhibition", "type": "biochemical", "set-up": "Kinetic assay RelA Inhibition % ΔRFU(60 min-0 min) / RelA HTS % Inhibition / RelA Retest % Inhibition Run1 / RelA Retest % Inhibition Run2 / RelA Retest % Inhibition Avg. / Kinetic assay RelA % Inhibition ΔRFU(60 min-0 min): dose or concentration left out as unconfirmed", "description": "as §1"}}, "note": "Where “and” joins values, the source holds several entries; their conditions need not be identical. Equal values may be shown once. Where a name gives a salt, the structure may show the parent alone. Read-outs that look alike come from different tables or passages of the source.", "data": [{"smiles": "CC(=O)Oc1cccc2c1C(=O)c1c(OC(C)=O)cc(C(=O)O)cc1C2=O", "note": "[DIACERIN]", "values": [{"measurement": "Kinetic assay p52 % Inhibition ΔRFU(60 min-0 min)", "setting": "p52; kinetic assay, 60 min-0 min", "result": 2.21, "unit": "%"}, {"measurement": "Kinetic assay RelA % Inhibition ΔRFU(60 min-0 min)", "setting": "RelA; kinetic assay, 60 min-0 min", "result": 3, "unit": "%"}]}, {"smiles": "OCCN(CCO)c1nc(N2CCCCC2)c2nc(N(CCO)CCO)nc(N3CCCCC3)c2n1", "note": "[DIPYRIDAMOLE]", "values": [{"measurement": "Kinetic assay p52 % Inhibition ΔRFU(60 min-0 min)", "setting": "p52; kinetic assay, 60 min-0 min", "result": -1.17, "unit": "%"}, {"measurement": "Kinetic assay RelA % Inhibition ΔRFU(60 min-0 min)", "setting": "RelA; kinetic assay, 60 min-0 min", "result": -1.49, "unit": "%"}]}, {"smiles": "COc1cccc2c1C(=O)c1c(O)c3c(c(O)c1C2=O)C[C@@](O)(C(=O)CO)C[C@@H]3O[C@H]1C[C@H](N)[C@H](O)[C@H](C)O1", "note": "[DOXORUBICIN]", "values": [{"measurement": "Kinetic assay p52 % Inhibition ΔRFU(60 min-0 min)", "setting": "p52; kinetic assay, 60 min-0 min", "result": -16, "unit": "%"}, {"measurement": "Kinetic assay RelA % Inhibition ΔRFU(60 min-0 min)", "setting": "RelA; kinetic assay, 60 min-0 min", "result": -14, "unit": "%"}]}, {"smiles": "COc1cccc2c1C(=O)c1c(O)c3c(c(O)c1C2=O)C[C@@](O)(C(C)=O)C[C@@H]3O[C@H]1C[C@H](N)[C@H](O)[C@H](C)O1", "note": "[Daunomycin]", "values": [{"measurement": "inhibition at 5 µg/mL", "setting": "p52; HTS, 5 µg/mL, NPDepo hits, read-out: p52 HTS % Inhibition @ 5 µg/mL", "result": 77.8, "unit": "%"}, {"measurement": "inhibition at 5 µg/mL", "setting": "p52; Retest Run1, 5 µg/mL, read-out: p52 Retest % Inhibition @ 5 µg/mL Run1", "result": 92.7, "unit": "%"}, {"measurement": "inhibition at 5 µg/mL", "setting": "p52; Retest Run2, 5 µg/mL, read-out: p52 Retest % Inhibition @ 5 µg/mL Run2", "result": 99, "unit": "%"}, {"measurement": "inhibition at 5 µg/mL", "setting": "p52; Retest average of Run1 and Run2, 5 µg/mL, read-out: p52 Retest % Inhibition @ 5 µg/mL Avg.", "result": 95.9, "unit": "%"}, {"measurement": "inhibition at 5 µg/mL", "setting": "p52; kinetic assay, 5 µg/mL, ΔRFU 60 min-0 min, read-out: Kinetic assay @ 5 µg/mL p52 Inhibition % ΔRFU(60 min-0 min)", "result": -4.66, "unit": "%"}]}, {"smiles": "COc1cccc2c1C(=O)c1c(O)c3c(c(O)c1C2=O)C[C@@](O)(C(C)=O)C[C@@H]3O[C@H]1C[C@H](N)[C@H](O)[C@H](C)O1", "note": "[Daunorubicin hydrochloride]", "values": [{"measurement": "Kinetic assay p52 % Inhibition ΔRFU(60 min-0 min)", "setting": "p52; kinetic assay, 60 min-0 min", "result": "-16% and -18%"}]}, {"smiles": "COc1cccc2c1C(=O)c1c(O)c3c(c(O)c1C2=O)C[C@@](O)(C(C)=O)C[C@@H]3O[C@H]1C[C@H](N)[C@H](O)[C@H](C)O1", "note": "[Daunorubicin(Daunomycin)]", "values": [{"measurement": "p52 HTS % Inhibition", "setting": "p52; HTS, NPDepo hits", "result": 78.5, "unit": "%"}, {"measurement": "p52 Retest % Inhibition Run1", "setting": "p52", "result": 79.2, "unit": "%"}, {"measurement": "p52 Retest % Inhibition Run2", "setting": "p52", "result": 84.3, "unit": "%"}, {"measurement": "p52 Retest % Inhibition Avg.", "setting": "p52", "result": 81.7, "unit": "%"}, {"measurement": "Kinetic assay p52 Inhibition % ΔRFU(60 min-0 min)", "setting": "p52; kinetic assay, ΔRFU 60 min-0 min", "result": -7, "unit": "%"}]}, {"smiles": "CC(=O)Oc1cccc2c1C(=O)c1c(OC(C)=O)cc(C(=O)O)cc1C2=O", "note": "[Diacerein]", "values": [{"measurement": "inhibition at 10 µM", "setting": "p52; HTS, known drugs, 10 µM, read-out: p52 HTS % Inhibition @ 10 µM", "result": 72.2, "unit": "%"}, {"measurement": "inhibition at 10 µM", "setting": "p52; kinetic assay, 60 min-0 min, 10 µM, read-out: Kinetic assay @ 10 µM p52 % Inhibition ΔRFU(60 min-0 min)", "result": 3, "unit": "%"}, {"measurement": "inhibition at 10 µM", "setting": "p52; retest, Run1, 10 µM, read-out: p52 Retest % Inhibition @ 10 µM Run1", "result": 46.8, "unit": "%"}, {"measurement": "inhibition at 10 µM", "setting": "p52; retest, Run2, 10 µM, read-out: p52 Retest % Inhibition @ 10 µM Run2", "result": 54, "unit": "%"}, {"measurement": "inhibition at 10 µM", "setting": "p52; retest, average of Run1 and Run2, 10 µM, read-out: p52 Retest % Inhibition @ 10 µM Avg.", "result": 50.4, "unit": "%"}, {"measurement": "inhibition at 10 µM", "setting": "RelA; HTS, known drugs, 10 µM, read-out: RelA HTS % Inhibition @ 10 µM", "result": 97.4, "unit": "%"}, {"measurement": "inhibition at 10 µM", "setting": "RelA; kinetic assay, 60 min-0 min, 10 µM, read-out: Kinetic assay @ 10 µM RelA % Inhibition ΔRFU(60 min-0 min)", "result": 4, "unit": "%"}, {"measurement": "inhibition at 10 µM", "setting": "RelA; retest, Run1, 10 µM, read-out: RelA Retest % Inhibition @ 10 µM Run1", "result": 51.6, "unit": "%"}, {"measurement": "inhibition at 10 µM", "setting": "RelA; retest, Run2, 10 µM, read-out: RelA Retest % Inhibition @ 10 µM Run2", "result": 57.2, "unit": "%"}, {"measurement": "inhibition at 10 µM", "setting": "RelA; retest, average of Run1 and Run2, 10 µM, read-out: RelA Retest % Inhibition @ 10 µM Avg.", "result": 54.4, "unit": "%"}]}, {"smiles": "COc1cccc2c1C(=O)c1c(O)c3c(c(O)c1C2=O)C[C@@](O)(C(=O)CO)C[C@@H]3O[C@H]1C[C@H](N)[C@H](O)[C@H](C)O1", "note": "[Doxorubicin]", "values": [{"measurement": "inhibition at 5 µg/mL", "setting": "RelA; HTS, 5 µg/mL, NPDepo hits, read-out: RelA HTS % Inhibition @ 5 µg/mL", "result": 70.5, "unit": "%"}, {"measurement": "inhibition at 5 µg/mL", "setting": "RelA; Retest Run1, 5 µg/mL, read-out: RelA Retest % Inhibition @ 5 µg/mL Run1", "result": 69.2, "unit": "%"}, {"measurement": "inhibition at 5 µg/mL", "setting": "RelA; Retest Run2, 5 µg/mL, read-out: RelA Retest % Inhibition @ 5 µg/mL Run2", "result": 78.3, "unit": "%"}, {"measurement": "inhibition at 5 µg/mL", "setting": "RelA; Retest average of Run1 and Run2, 5 µg/mL, read-out: RelA Retest % Inhibition @ 5 µg/mL Avg.", "result": 73.8, "unit": "%"}, {"measurement": "inhibition at 5 µg/mL", "setting": "RelA; kinetic assay, 5 µg/mL, ΔRFU 60 min-0 min, read-out: Kinetic assay @ 5 µg/mL RelA Inhibition % ΔRFU(60 min-0 min)", "result": -12, "unit": "%"}]}, {"smiles": "Cc1ccc(C(=O)Nc2ccc(S(=O)(=O)[O-])c3cc(S(=O)(=O)[O-])cc(S(=O)(=O)[O-])c23)cc1NC(=O)c1cccc(NC(=O)Nc2cccc(C(=O)Nc3cc(C(=O)Nc4ccc(S(=O)(=O)[O-])c5cc(S(=O)(=O)[O-])cc(S(=O)(=O)[O-])c45)ccc3C)c2)c1.[Na+].[Na+].[Na+].[Na+].[Na+].[Na+]", "note": "[Suramin hexasodium salt]", "values": [{"measurement": "Kinetic assay @ 50 µM p52 Inhibition % ΔRFU(120 min-0 min)", "setting": "p52; 96 well plate, 50 µM, 120 min-0 min", "result": 73, "unit": "%"}, {"measurement": "p52 HTS % Inhibition", "setting": "p52; HTS, known drugs", "result": 4.7, "unit": "%"}, {"measurement": "p52 Retest % Inhibition Run1", "setting": "p52", "result": 4.9, "unit": "%"}, {"measurement": "p52 Retest % Inhibition Run2", "setting": "p52", "result": 5.3, "unit": "%"}, {"measurement": "p52 Retest % Inhibition Avg.", "setting": "p52", "result": 5.1, "unit": "%"}, {"measurement": "Kinetic assay p52 % Inhibition ΔRFU(60 min-0 min)", "setting": "p52; kinetic assay, 60 min-0 min", "result": 7, "unit": "%"}]}, {"smiles": "Cc1ccc(C(=O)Nc2ccc(S(=O)(=O)O)c3cc(S(=O)(=O)O)cc(S(=O)(=O)O)c23)cc1NC(=O)c1cccc(NC(=O)Nc2cccc(C(=O)Nc3cc(C(=O)Nc4ccc(S(=O)(=O)O)c5cc(S(=O)(=O)O)cc(S(=O)(=O)O)c45)ccc3C)c2)c1", "note": "[Suramin, reference compound]", "values": [{"measurement": "p52–DNA binding inhibition at 50 µM", "setting": "p52; 96-well plates, 50 µM", "result": "inhibited both RelA–DNA and p52–DNA binding"}, {"measurement": "suppression of p52–DNA binding", "setting": "p52; HTS, 10 µM or 5 µg/mL", "result": "less than 10%"}]}]}
